These results are taken from ChEMBL document CHEMBL4334467, “Synthesis and SAR Study of Carbamoyl Pyridone Bicycle Derivatives as Potent Inhibitors of Influenza Cap-dependent Endonuclease” (J Med Chem, 2019).

Data set [1] deals with Polymerase acidic protein (Influenza A virus (A/Puerto Rico/8/1934(H1N1)), UniProt P03433). Briefly: Inhibition of Influenza A virus (A/WSN/1933(H1N1)) CEN using m7G[5']-ppp-[5'] [m2'-O]GAA UAU(-Cy3) GCAUCACUAGUAAGCUUUGCUCUA(-BHQ2)-3' as substrate measured after 60 mins by fluorescence assay.
A short description of data set [2]: Metabolic stability in Crj:CD(SD) rat liver microsomes assessed as compound remaining at 2 uM incubated for 30 mins by LC/MS/MS analysis. Type of data set: ADME, Microsome. Particulars: read-out: Stability.
For data set [3], the system named is Influenza A virus. Type of data set: functional, organism-based. The note with it: A/WSN/1933(H1N1), MDCK, 72 h.
Data set [4] can be described thus: Protein binding in rat serum assessed as unbound fraction after 24 hrs by LC-MS based equilibrium dialysis analysis. Type of data set: ADME, cell-free.
Data set [5] is described as follows: In vivo total clearance in Sprague-Dawley rat at 0.5 mg/kg, iv administered as single dose after 2 to 360 mins by LC/MS/MS analysis. Type of data set: ADME, organism-based.
Data set [6] concerns Influenza A virus. Type of data set: functional, organism-based. Particulars: MDCK.
Data set [7] can be described thus: Cytotoxicity against MDCK cells after 3 days by WST-8 assay. Format: cell-based, Canis lupus familiaris. The note with it: dog.
Data set [8] deals with Influenza B virus. Briefly: Antiviral activity against Influenza B virus (B/Maryland/1/59) infected in BALB/C mouse assessed as mouse survival at 10 mg/kg, iv administered once daily relative to control. Format: functional.
Data set [9] concerns Influenza B virus. Briefly: Antiviral activity against Influenza B virus (B/Maryland/1/59) infected in iv dosed BALB/C mouse administered once daily. Format: functional.
The subject of data set [10] is Influenza B virus. Briefly: Antiviral activity against Influenza B virus (B/Hong Kong/05/72) infected in MDCK cells assessed as reduction in virus-induced cytopathic effect incubated for 72 hrs by WST assay. Type of data set: functional, organism-based. Particulars: B/Hong Kong/05/1972, MDCK.
The subject of data set [11] is Influenza B virus. Briefly: Antiviral activity against Influenza B virus (B/Maryland/1/59) infected in BALB/C mouse assessed as increase in mouse survival at 0.08 to 2 mg/kg, iv administered once daily. Format: functional, organism-based.
Data set [12] has as its system Influenza A virus H3N2. Type of data set: functional, organism-based. The note with it: A/Hong Kong/8/68, MDCK, 72 h.
Data set [13] has as its system Influenza A virus. Format: functional, organism-based. Particulars: A/Puerto Rico/8/1934(H1N1), MDCK, 72 h.
For data set [14], the system named is Influenza A virus H3N2. Format: functional, organism-based. The note with it: A/Victoria/3/1975(H3N2), MDCK, 72 h.
In data set [15] the test system is Influenza B virus. Briefly: Antiviral activity against Influenza B virus (B/Maryland/1/59) infected in MDCK cells assessed as reduction in virus-induced cytopathic effect incubated for 72 hrs by WST assay. Type of data set: functional, organism-based.
Data set [16] has as its system Influenza A virus. Briefly: microbe, parasite or virus in culture.
Description: Antiviral activity against Influenza A virus
Data set [17] concerns the target Polymerase acidic protein (Influenza A virus (A/Puerto Rico/8/1934(H1N1)), UniProt P03433). Briefly: Inhibition of Influenza A virus CEN.

pEC50, pIC50: −log10 of the molar value. Activity calls are given as the source filed them. The rule behind the calls is not given here.

For `COCCN1C[C@H](CCc2ccccc2)n2cc(C(=O)O)c(=O)c(O)c2C1=O`, the pIC50 in [1] is 5.87.

Compound `CN1C[C@H](C(c2ccccc2)c2ccccc2)n2ccc(=O)c(O)c2C1=O` gave a negative logarithm of the IC50 (pIC50) in [1] of 7.09. For the same compound, the remaining at 0.5 h, 2 µM in data set [2] worked out at 79.9%. In the data set with Influenza A virus [3], the negative-log EC50 (pEC50) is 6.84. Besides, the unbound share (fraction unbound) at 24 h in data set [4] was found to be 0.285. The clearance in data set [5] came to 31.6 mL/min/kg.

Regarding `O=C1N/C(=N\N=C2\C(=O)Nc3ccccc32)S/C1=C1\C(=O)Nc2ccccc21`, the pEC50 in the data set on Influenza A virus [6] was 6.10.

In turn, `COCCN1C[C@H](c2ccccc2)n2cc(C(=O)O)c(=O)c(O)c2C1=O` gave a pIC50 in data set [1] of 4.56. For the same compound, in the data set on Influenza A virus [3], the pEC50 is less than 4.30.

Compound `COCCN1C[C@H](C(c2ccccc2)c2ccccc2)n2cc(N)c(=O)c(O)c2C1=O` had a pIC50 in [1] of 6.45. In the data set with Influenza A virus [3], this compound had a negative logarithm of the EC50 (pEC50) of 5.41.

`CC(C)N1CN(C(c2ccccc2)c2ccccc2)n2ccc(=O)c(O)c2C1=O` showed a negative logarithm of the IC50 (pIC50) in [1] of 6.54. In data set [7], the 50% cytotoxic concentration (CC50) at 72 h was more than 25000 nM. In addition, the survival at 10 mg/kg with Influenza B virus [8] stood at 100%. The remaining at 0.5 h, 2 µM in data set [2] was 86%. The Activity result with Influenza B virus [9] is “Dose-dependent effect”. Moreover, the 50% effect level with Influenza B virus [9] (ED50) was put at a dose of 0.89 mg/kg/day. Also, the pEC50 was 6.91 with Influenza B virus [10]; 7.09 with Influenza A virus [3]; 6.52 in the data set on Influenza A virus H3N2 [12]; 6.74 with Influenza A virus [13]; 6.08 in the data set with Influenza A virus H3N2 [14]; 6.75 in the data set on Influenza B virus [15]. Besides, the fraction unbound at 24 h in data set [4] stood at 0.0377. Also, the outcome with Influenza B virus [11] was inactive. For the same compound, the clearance in data set [5] is 10.9 mL/min/kg.

Compound `CC(C)N1C[C@H](C(c2ccccc2)c2ccccc2)n2ccc(=O)c(O)c2C1=O` had a negative logarithm of the IC50 (pIC50) in [1] of 6.62. Besides, the remaining at 0.5 h, 2 µM in data set [2] was 78.7%. Further, the pEC50 is 7.00 in the data set on Influenza B virus [10]; 7.24 in the data set on Influenza A virus [3]; 6.63 in the data set on Influenza A virus H3N2 [12]; 6.71 in the data set with Influenza A virus [13]; 6.31 in the data set with Influenza A virus H3N2 [14]; 6.75 in the data set on Influenza B virus [15]. The unbound share (fraction unbound) at 24 h in data set [4] amounted to 0.182. Also, the clearance in data set [5] was 25.3 mL/min/kg.

With `O=C(O)c1cn(CC2(n3ccc4cccnc43)CCCC2)cc(O)c1=O`, the pEC50 in the data set with Influenza A virus [16] is 6.70. The pIC50 in data set [17] was 8.30.

For the compound `COCCN1C[C@H](C(c2ccccc2)c2ccccc2)n2cc(C)c(=O)c(O)c2C1=O`, in data set [1], the pIC50 was 6.55. The pEC50 in the data set with Influenza A virus [3] is 5.61.

With `O=c1[nH]c(-c2ccc(F)cc2)c(-c2ccc(-c3nnn[nH]3)cc2)cc1O`, the negative logarithm of the EC50 (pEC50) in the data set on Influenza A virus [16] is 4.94.

With `CNC(=O)c1cn2c(c(O)c1=O)C(=O)N(CCOC)C[C@@H]2C(c1ccccc1)c1ccccc1`, the pIC50 in data set [1] is 5.80. In the data set on Influenza A virus [3], this compound had a negative logarithm of the EC50 (pEC50) of 5.15.

`O=c1oc2ccc(-c3ccc(F)cc3)cc2cc1O` gave a pIC50 in data set [17] of 6.30.

On to `COCCN1CCn2cc(C(=O)O)c(=O)c(O)c2C1=O`, for which the pIC50 in data set [1] is 4.16.

Consider `COCCN1C[C@@H](Cc2ccccc2)n2cc(C(=O)O)c(=O)c(O)c2C1=O`, for which the negative-log IC50 (pIC50) in data set [1] was 4.56. For the same compound, the negative logarithm of the EC50 (pEC50) in the data set on Influenza A virus [3] was less than 4.30.

For the compound `COCCN1CN(C(c2ccccc2)c2ccccc2)n2cc(C(=O)O)c(=O)c(O)c2C1=O`, in [1], the negative-log IC50 (pIC50) was 6.94. This compound had a pEC50 with Influenza A virus [3] of 5.83.

`COCCN1C[C@H](C(c2ccccc2)c2ccccc2)n2cc(OC)c(=O)c(O)c2C1=O`: the negative logarithm of the IC50 (pIC50) in data set [1] is 6.96. The compound also had a negative-log EC50 (pEC50) in the data set on Influenza A virus [3] of 5.77.

Compound `O=C(NCCc1ccc(O)c(O)c1)c1cc2cc(O)c(O)cc2[nH]1` showed a pEC50 in the data set with Influenza A virus [16] of 4.80. The compound also showed a negative logarithm of the IC50 (pIC50) in [17] of 6.03.

Compound `O=C(O)/C(O)=C/C(=O)C1(Cc2ccc(Cl)cc2)CCN(Cc2ccccc2)CC1` had a negative logarithm of the EC50 (pEC50) with Influenza A virus [3] of 4.42.

Regarding `O=C1c2c(O)c(=O)ccn2N(C(c2ccccc2)c2ccccc2)CN1Cc1ccco1`, the pIC50 in data set [1] is 6.23. Moreover, the remaining at 0.5 h, 2 µM in data set [2] was 50.6%. Moreover, in the data set with Influenza A virus [3], the negative-log EC50 (pEC50) is 6.32. Moreover, the fraction unbound at 24 h in [4] came out at 0.0217. In addition, the clearance in [5] was 42.6 mL/min/kg.

On to `COCCN1C[C@H](C(C)C)n2cc(C(=O)O)c(=O)c(O)c2C1=O`, for which the pIC50 in [1] is 5.52.

The compound `CCOC(=O)c1cn2c(c(O)c1=O)C(=O)N(CCOC)C[C@@H]2C(c1ccccc1)c1ccccc1` gave a negative-log IC50 (pIC50) in data set [1] of 6.53. Further, the pEC50 with Influenza A virus [3] was 5.60.

Consider `COCCN1CN(Cc2ccc(F)cc2)n2cc(C(=O)O)c(=O)c(O)c2C1=O`, for which, in data set [1], the pIC50 was 6.38. In the data set on Influenza A virus [3], this compound gave a pEC50 of less than 4.60.

`COCCN1C[C@H](CC(C)C)n2cc(C(=O)O)c(=O)c(O)c2C1=O` gave a pIC50 in [1] of 5.03.

With `COCCN1CN(C(c2ccccc2)c2ccccc2)n2ccc(=O)c(O)c2C1=O`, the pIC50 in data set [1] was 6.99. In [2], the remaining at 0.5 h, 2 µM came to 83.4%. Moreover, the negative logarithm of the EC50 (pEC50) with Influenza A virus [3] is 7.12. Besides, in [4], the fraction unbound at 24 h was 0.129. Further, in [5], the clearance is 47.4 mL/min/kg.

In turn, `COCCN1C[C@H](Cc2ccccc2)n2cc(C(=O)O)c(=O)c(O)c2C1=O` gave a pIC50 in [1] of 6.62. Moreover, the pEC50 with Influenza A virus [3] was less than 4.30.

Regarding `COCCN1C[C@H](C(c2ccccc2)c2ccccc2)n2ccc(=O)c(O)c2C1=O`, the pIC50 in data set [1] was 6.94. Also, the remaining at 0.5 h, 2 µM in [2] came to 79.7%. The compound further showed a negative logarithm of the EC50 (pEC50) with Influenza A virus [3] of 6.87. In [4], the fraction unbound at 24 h worked out at 0.297. The compound also showed a clearance in [5] of 42.2 mL/min/kg.

As for `COCCN1C[C@H](C(c2ccccc2)c2ccccc2)n2cc(Cl)c(=O)c(O)c2C1=O`, in the data set on Influenza A virus [3], the negative-log EC50 (pEC50) is 6.27.

Compound `CN1CN(C(c2ccccc2)c2ccccc2)n2ccc(=O)c(O)c2C1=O` showed a pIC50 in [1] of 6.79. Further, in data set [2], the remaining at 0.5 h, 2 µM was found to be 92.1%. For the same compound, the negative logarithm of the EC50 (pEC50) in the data set on Influenza A virus [3] is 7.09. Further, the fraction unbound at 24 h in [4] was determined as 0.07. In data set [5], this compound showed a clearance of 18.8 mL/min/kg.

As for `COCCN1C[C@H](C(c2ccccc2)c2ccccc2)n2cc(C(=O)O)c(=O)c(O)c2C1=O`, the pIC50 in data set [1] is 7.32. Moreover, the negative logarithm of the EC50 (pEC50) in the data set with Influenza A virus [3] was 6.53.
